Activity calls are given as the source filed them.
What was measured:
[1] = HEp-2 cell cytotoxicity, dose response, cytotoxicity control for RSV inhibitor project, HTS (AID 2410); type: functional; conditions: human respiratory syncytial virus
[2] = Luminescence Cell-Based Dose Response HTS to Identify Inhibitors of 5'UTR Stem-Loop Driven Prion Protein mRNA Translation in H4 Neuroglioblastoma Cells. [Related pubchem assays: 1827 (Project Summary), 1813 (Primary HTS)]; type: functional
Vero = assay: host cell cytotoxicity of antiviral hits, dose response, cytotoxicity control for West Nile virus antiviral project, secondary assay (AID 1650); type: functional; conditions: Chlorocebus sabaeus
[3] = inhibitors of SNCA 5'UTR-driven reporter translation, confirmation, H4 neuroglioma cells, luminescence (AID 1988); type: functional, cell-based
[4] = inhibitors of firefly luciferase expression or activity, dose response, H4 neuroglioma cells, luminescence (AID 1990); type: functional, cell-based
Protein skinhead-1 = target: T1, Protein skinhead-1 (Caenorhabditis elegans, UniProt P34707); type: functional
T1 sequence (P34707 whole entry): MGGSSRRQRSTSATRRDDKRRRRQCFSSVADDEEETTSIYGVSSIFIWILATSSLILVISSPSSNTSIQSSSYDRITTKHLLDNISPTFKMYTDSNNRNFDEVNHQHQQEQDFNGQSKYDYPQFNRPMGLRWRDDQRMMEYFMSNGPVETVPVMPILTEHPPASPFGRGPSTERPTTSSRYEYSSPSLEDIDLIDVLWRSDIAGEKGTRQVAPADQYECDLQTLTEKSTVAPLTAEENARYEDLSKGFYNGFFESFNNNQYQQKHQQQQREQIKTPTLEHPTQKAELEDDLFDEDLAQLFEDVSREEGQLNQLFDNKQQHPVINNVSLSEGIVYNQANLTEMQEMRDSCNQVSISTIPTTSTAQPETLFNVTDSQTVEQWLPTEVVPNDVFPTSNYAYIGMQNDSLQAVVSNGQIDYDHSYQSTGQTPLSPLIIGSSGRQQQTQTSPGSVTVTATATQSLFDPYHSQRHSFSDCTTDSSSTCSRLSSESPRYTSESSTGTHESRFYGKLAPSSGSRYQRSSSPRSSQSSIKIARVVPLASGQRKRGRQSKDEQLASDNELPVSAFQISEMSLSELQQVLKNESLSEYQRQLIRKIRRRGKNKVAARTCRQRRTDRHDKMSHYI

[5] = target: 5-hydroxytryptamine receptor 1A (Homo sapiens, UniProt P08908); type: functional
[6] = target: Voltage-gated inwardly rectifying potassium channel KCNH2 (Homo sapiens, UniProt Q12809); assay: hERG protection from proarrhythmic block, potency, dose response, cell-based, thallium flux (AID 2121); type: ADME
[7] = target: T2, Mannose-6-phosphate isomerase (Homo sapiens, UniProt P34949); assay: inhibitors of human PMI, primary screen, biochemical, fluorescence intensity, coupled assay (AID 1209)
T2 sequence (P34949 whole entry): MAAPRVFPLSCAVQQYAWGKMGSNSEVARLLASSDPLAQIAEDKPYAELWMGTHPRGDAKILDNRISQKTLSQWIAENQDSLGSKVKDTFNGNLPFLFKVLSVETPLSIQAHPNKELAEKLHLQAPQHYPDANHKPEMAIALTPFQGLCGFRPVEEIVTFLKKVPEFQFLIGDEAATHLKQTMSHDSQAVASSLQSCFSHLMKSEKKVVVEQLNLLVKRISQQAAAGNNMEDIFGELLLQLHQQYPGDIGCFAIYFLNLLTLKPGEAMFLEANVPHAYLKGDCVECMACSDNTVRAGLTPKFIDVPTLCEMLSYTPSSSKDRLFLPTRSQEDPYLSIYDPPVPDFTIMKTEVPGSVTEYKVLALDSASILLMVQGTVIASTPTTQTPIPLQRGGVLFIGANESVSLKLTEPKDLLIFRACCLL

[8] = Luminescence Cell-Based Dose Confirmation HTS to Identify Activators of 5'UTR Stem-Loop Driven Alpha-Synuclein mRNA Translation in H4 Neuroglioblastoma Cells. [Related pubchem assays: 1829 (Project Summary), 1814 (Primary HTS)]; type: functional
H4 = assay: Luminescence Cell-Based Dose Response HTS to Identify Activators of 5'UTR Stem-Loop Driven Prion Protein mRNA Translation in H4 Neuroglioblastoma Cells. [Related pubchem assays: 1829 (Project Summary), 1814 (Primary HTS)]; type: functional; conditions: Homo sapiens
[9] = target: Heat shock protein HSP 90-alpha (Homo sapiens, UniProt P07900); assay: Luminescence-based dose response biochemical high throughput screening assay for inhibitors of the Heat Shock Protein 90 (HSP90). [Related pubchem assays: 1831 (Summary AID.), 1846 (Confirmation screen.), 1789 (Primary screen.)]
[10] = Luminescence Cell-Based Dose Response HTS to Identify Activators of Luciferase Translation or Activity in H4 […] Cells. [Related pubchem assays: 1829 (Project Summary), 1814 (Primary HTS)]; type: functional
[11] = M. tuberculosis growth inhibition, HTS (AID 449762); type: functional
[12] = target: Sphingosine 1-phosphate receptor 1 (Homo sapiens, UniProt P21453); assay: Cell-membrane dose response assay to identify antagonists of the Sphingosine 1-Phosphate receptor 1 (S1P1).; type: functional
[13] = Luminescence Cell-Based Dose Confirmation HTS to Identify Inhibitors of Platelet Dense Granule Release. [Related pubchem assays: 1663 (Primary HTS), 1678 (Summary of Project)]; type: functional
[14] = target: Luciferin 4-monooxygenase (Photinus pyralis, UniProt P08659); assay: firefly luciferase enzyme inhibitors, dose response, biochemical, luminescence (AID 1891)
[15] = Fluorescence Cell-Based Dose Response to Identify Inhibitors of Thrombin Receptor-Activating Peptide SFLLRN-Mediated P-Selectin Induction on Platelets. [Related pubchem assays: 1663 (Primary HTS), 1889 (retest at dose ), 1891 (counterscreen), 1678 (Project Summary)]; type: functional
[16] = target: T3, Neuropeptide Y receptor type 1 (Homo sapiens, UniProt P25929); assay: NPY-Y1 receptor antagonist potency, dose response, cell-based (AID 1277); type: functional
T3 sequence (P25929 whole entry): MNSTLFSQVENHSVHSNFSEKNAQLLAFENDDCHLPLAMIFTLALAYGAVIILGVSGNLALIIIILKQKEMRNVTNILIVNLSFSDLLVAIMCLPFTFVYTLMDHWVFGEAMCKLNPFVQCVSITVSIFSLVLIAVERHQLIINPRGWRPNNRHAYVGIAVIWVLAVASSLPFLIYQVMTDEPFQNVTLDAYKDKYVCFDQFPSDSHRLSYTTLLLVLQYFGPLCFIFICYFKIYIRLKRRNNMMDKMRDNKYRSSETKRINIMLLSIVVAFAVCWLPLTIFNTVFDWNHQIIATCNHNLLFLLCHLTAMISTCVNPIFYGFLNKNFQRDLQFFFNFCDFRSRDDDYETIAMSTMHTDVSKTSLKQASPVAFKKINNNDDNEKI

[17] = target: T4, Neuropeptide Y receptor type 2 (Homo sapiens, UniProt P49146); assay: NPY-Y2 antagonist potency, selectivity check, dose response, counter-screen for NPY-Y1 antagonist project, cell-based (AID 1278); type: functional
T4 sequence (P49146 whole entry): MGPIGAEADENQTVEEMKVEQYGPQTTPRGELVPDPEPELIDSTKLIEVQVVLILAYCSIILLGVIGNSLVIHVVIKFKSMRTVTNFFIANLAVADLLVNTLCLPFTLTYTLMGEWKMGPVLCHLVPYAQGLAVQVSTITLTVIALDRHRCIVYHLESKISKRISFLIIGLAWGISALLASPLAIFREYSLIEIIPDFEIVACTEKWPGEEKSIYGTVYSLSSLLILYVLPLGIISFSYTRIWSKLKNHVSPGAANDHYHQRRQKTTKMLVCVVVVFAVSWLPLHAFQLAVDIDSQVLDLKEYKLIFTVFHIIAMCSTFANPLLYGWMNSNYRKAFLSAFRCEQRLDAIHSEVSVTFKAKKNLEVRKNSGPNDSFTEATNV

Galanin receptor type 2 = Galanin receptor type 2 (Homo sapiens, UniProt O43603); assay: Dose Response cell-based high-throughput screening assay to identify antagonists of galanin receptor 2 (GALR2). [Related pubchem assays: 828, 866 ]; type: functional
[18] = target: Bifunctional protein GlmU (Mycobacterium tuberculosis, UniProt P9WMN3); assay: Inhibitors of Mycobacterial Glucosamine-1-phosphate acetyl transferase (GlmU). Secondary screen.; design: species or system Mycobacterium tuberculosis H37Rv
Bifunctional protein GlmU, sequence (P9WMN3 whole entry): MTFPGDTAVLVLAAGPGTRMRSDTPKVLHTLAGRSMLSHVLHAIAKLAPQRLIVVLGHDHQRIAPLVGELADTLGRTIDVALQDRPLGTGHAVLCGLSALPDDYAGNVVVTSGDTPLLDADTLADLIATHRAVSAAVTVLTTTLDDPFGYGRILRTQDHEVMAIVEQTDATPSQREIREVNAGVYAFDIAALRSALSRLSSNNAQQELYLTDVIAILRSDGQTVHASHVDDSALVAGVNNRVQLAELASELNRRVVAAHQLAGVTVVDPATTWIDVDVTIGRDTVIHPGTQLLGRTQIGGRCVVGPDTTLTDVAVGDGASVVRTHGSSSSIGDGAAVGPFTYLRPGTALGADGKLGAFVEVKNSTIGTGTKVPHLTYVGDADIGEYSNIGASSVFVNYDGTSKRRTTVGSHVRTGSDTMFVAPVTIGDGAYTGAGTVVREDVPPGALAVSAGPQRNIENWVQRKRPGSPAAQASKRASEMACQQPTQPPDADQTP

Sphingosine 1-phosphate receptor 1, sequence (P21453 whole entry): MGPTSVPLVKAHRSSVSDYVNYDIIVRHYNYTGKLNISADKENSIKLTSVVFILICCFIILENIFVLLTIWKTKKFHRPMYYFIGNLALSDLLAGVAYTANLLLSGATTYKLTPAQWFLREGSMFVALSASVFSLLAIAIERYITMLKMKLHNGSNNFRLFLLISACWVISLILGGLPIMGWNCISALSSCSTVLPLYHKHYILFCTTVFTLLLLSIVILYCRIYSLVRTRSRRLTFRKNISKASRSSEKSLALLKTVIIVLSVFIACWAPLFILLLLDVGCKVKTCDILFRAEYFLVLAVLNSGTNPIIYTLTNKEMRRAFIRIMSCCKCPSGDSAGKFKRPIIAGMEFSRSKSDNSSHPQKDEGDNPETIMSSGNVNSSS
Galanin receptor type 2, sequence (O43603 whole entry): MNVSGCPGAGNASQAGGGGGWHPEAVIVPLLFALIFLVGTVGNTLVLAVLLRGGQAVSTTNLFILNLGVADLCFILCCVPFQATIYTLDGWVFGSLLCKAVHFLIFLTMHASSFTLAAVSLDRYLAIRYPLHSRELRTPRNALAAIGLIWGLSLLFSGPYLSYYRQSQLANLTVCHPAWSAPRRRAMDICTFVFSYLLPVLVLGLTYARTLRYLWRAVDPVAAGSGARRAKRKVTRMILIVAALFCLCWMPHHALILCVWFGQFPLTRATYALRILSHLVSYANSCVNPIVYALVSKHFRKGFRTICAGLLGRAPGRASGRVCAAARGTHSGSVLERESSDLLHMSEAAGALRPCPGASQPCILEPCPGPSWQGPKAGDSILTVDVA
5-hydroxytryptamine receptor 1A, sequence (P08908 whole entry): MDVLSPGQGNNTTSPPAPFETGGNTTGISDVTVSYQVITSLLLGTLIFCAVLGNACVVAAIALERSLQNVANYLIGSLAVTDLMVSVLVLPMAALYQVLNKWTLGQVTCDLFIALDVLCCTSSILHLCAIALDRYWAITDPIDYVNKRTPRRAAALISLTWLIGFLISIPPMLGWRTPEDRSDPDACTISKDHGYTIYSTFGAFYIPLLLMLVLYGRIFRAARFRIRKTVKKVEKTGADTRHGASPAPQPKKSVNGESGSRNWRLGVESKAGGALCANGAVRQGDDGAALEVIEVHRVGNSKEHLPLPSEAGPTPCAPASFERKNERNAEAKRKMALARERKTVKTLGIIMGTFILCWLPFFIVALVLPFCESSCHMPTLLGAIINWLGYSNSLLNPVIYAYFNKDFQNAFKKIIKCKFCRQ
Voltage-gated inwardly rectifying potassium channel KCNH2, sequence (Q12809 whole entry): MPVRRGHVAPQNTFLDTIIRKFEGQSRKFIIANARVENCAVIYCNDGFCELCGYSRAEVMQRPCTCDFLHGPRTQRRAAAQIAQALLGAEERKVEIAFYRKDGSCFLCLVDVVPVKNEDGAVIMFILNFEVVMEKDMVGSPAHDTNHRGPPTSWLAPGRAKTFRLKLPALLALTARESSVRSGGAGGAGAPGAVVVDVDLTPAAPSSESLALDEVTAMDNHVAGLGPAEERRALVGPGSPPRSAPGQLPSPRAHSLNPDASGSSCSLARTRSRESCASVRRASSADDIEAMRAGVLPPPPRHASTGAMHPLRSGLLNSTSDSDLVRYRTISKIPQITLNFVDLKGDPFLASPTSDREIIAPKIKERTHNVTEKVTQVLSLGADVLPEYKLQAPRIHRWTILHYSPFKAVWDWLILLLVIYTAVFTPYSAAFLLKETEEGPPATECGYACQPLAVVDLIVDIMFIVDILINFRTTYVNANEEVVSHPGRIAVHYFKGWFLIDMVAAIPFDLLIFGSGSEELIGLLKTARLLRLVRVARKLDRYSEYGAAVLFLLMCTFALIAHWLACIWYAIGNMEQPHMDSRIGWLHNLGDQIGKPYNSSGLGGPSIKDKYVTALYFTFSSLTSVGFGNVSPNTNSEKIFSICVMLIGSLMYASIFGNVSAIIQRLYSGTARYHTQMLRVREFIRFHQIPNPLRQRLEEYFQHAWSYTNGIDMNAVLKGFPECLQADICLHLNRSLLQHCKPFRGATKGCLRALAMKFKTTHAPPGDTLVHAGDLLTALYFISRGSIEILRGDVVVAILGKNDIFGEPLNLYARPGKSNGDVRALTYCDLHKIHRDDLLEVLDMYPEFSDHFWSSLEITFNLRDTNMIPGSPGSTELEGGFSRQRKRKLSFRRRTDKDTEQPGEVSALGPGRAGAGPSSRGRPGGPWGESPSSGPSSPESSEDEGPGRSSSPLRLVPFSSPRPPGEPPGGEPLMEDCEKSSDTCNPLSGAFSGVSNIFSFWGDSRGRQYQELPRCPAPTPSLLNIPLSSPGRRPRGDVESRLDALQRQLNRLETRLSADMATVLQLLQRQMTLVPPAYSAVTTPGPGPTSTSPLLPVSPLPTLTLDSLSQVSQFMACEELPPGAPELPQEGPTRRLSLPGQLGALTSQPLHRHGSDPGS
Luciferin 4-monooxygenase, sequence (P08659 whole entry): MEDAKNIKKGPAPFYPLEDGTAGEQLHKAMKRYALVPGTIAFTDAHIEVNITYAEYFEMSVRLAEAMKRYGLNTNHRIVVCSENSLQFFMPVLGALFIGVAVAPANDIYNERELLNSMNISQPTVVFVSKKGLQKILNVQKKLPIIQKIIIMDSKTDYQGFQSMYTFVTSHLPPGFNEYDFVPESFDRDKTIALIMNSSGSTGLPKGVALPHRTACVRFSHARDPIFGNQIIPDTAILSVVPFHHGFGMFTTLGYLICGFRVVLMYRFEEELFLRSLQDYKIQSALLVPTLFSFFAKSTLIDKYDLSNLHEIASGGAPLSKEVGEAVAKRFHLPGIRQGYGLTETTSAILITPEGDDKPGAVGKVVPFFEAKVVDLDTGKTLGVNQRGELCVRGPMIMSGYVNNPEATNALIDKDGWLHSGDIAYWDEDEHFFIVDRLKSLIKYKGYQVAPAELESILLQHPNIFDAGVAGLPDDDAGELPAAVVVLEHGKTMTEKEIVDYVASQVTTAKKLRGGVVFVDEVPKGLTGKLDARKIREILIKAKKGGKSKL

CC12CC[C@H]3[C@@H](CCC4(O)C[C@H](O)CCC34/C=N/NC(=O)c3ccccc3[N+](=O)[O-])C1(O)CCC2C1=CC(=O)OC1 (some centres not stated)
CC50 [1]: 12.9 µM (active) | EC50 [2]: 11.9 µM (active) | CC50 (Vero): 32 µM (active) | EC50 [3]: 8.77 µM (active) | EC50 [4]: 11.2 µM (active)

O=C(COC(=O)CCC1CCCC1)Nc1ccc(Cl)cn1
IC50 (Protein skinhead-1): > 100 µM (inactive) | EC50 [5]: > 50 µM (not active)

CC(C)CNC(=S)NC(=O)c1ccc(Cl)cc1
EC50 [6]: 6.61 µM (active)

CC1(C(=O)CSc2nc[nH]n2)CCC(=O)O1 (configuration not stated)
IC50 [7]: > 50 µM (not active)

Cc1nc(NC(=O)c2cccc(Cl)c2)sc1C(=O)N1CCCCC1
EC50 [8]: 12.2 µM (active) | EC50 (H4): 20.1 µM (active) | IC50 [9]: 6.4 µM (active) | EC50 [10]: 14.2 µM (active)

O=C1c2ccccc2C(=O)N1Nc1ccccc1
IC50 [11]: > 100 µM (active)

CCCCCCc1cccc(NC(=O)[C@H](N)CCP(=O)(O)O)c1
Ki [12]: 4.63 µM (active)

O=C(Oc1ccc(Cl)cc1)c1ccc(COC(=O)c2cnccn2)cc1
EC50 [13]: 7.27 µM (active) | EC50 [14]: > 112 µM (not active) | EC50 [15]: > 100 µM (not active)

Cc1ccc(C)c(SCc2noc(C(=O)NCC3CCCO3)c2C(=O)O)c1 (configuration not stated)
IC50 [16]: > 35 µM (not active) | IC50 [17]: 26.4 µM (not active)

CCn1c2ccc(C)cc2c2nc3cc(C(=O)O)ccc3nc21
IC50 (Galanin receptor type 2): > 42 µM (not active) | IC50 [18]: 191 µM (active)

Reference: ChEMBL document CHEMBL1201862, “PubChem BioAssay data set” (2004)
